Laboratory results published in patent publication US20100160251A1, “IMIDAZO COMPOUNDS” (priority 2006, published 2010).

Test system: γδT lymphocyte
Assay: Induction of γδT lymphocyte proliferation, human peripheral blood cells, BrdU labelling after 3 days of culture
Assay type: cell-based
Experimental: The activity on γδT lymphocyte proliferation is tested in the following way: human peripheral blood cells are cultured in the presence of an RPMI-type culture medium supplemented with L-glutamine (2 mM), penicillin/streptomycin (50 μg/50 IU/ml) and foetal calf serum (10%). The C-glycoside derivatives are added at various concentrations (10 to 0.05 mM), along with phytohemagglutin (PHA at […]), a positive control for lymphocyte proliferation.

SMILES: CC(=O)C[C@H]1O[C@H](CO)[C@@H](O[C@@H]2O[C@H](CO)[C@H](O)[C@H](O)[C@H]2O)[C@H](O)[C@H]1O [Compound 1, 1-(C-β-D-lactopyranosyl)propan-2-one]
- % stimulation relative to the control (concentration 0.05 (mM)): 100%
- % stimulation relative to the control (concentration 0.1 (mM)): 110%
- % stimulation relative to the control (concentration 0.5 (mM)): 82%
- % stimulation relative to the control (concentration 1 (mM)): 108%
- % stimulation relative to the control (concentration 5 (mM)): 169%
- % stimulation relative to the control (concentration 10 (mM)): 214%
